Read-outs that look alike come from different tables or passages of the source.
What was measured:
[1] = test system: Caco-2 cells; assay: Cell cycle distribution by PI staining and flow cytometry; type: cell-based, human
Method: After excluding sub-G1 events, we proceeded to evaluate the impact of dyes 5 and 10 on cell cycle distribution.
Apoptosis (sub-G1 events) and cell cycle distribution were evaluated by propidium iodide (PI) staining and flow cytometry, as described by Riccardi and Nicolleti. After 48 h of Caco-2 cells (2 mL; 3 × 10^4 cells/mL) adherence in 6-well plates, the culture medium was substituted with the test solutions (3 mL and 5 mL for negative control) and incubated for a further 72 or 120 h. Untreated cells were used as the negative control, and sorbitol and 5-FU were used as positive controls. After incubation, the supernatant was collected in a centrifuge tube, cells were washed with PBS, trypsinized and wells were once again washed with PBS. This cell suspension was maintained on ice, centrifugated at 300 g for 5 min, and then the pellet was resuspended in 0.5 mL of PBS. Cells were fixed by adding 4.5 mL of 70% ethanol cooled at −20 °C on ice and were stored at −20 °C for a period ranging from one to a few days. On the day of flow cytometry analysis, PBS was added to the fixed cell tubes, followed by centrifugation and removal of the supernatant. The pellet was resuspended in 0.5 mL of PBS and 0.5 mL of DNA extraction solution (192 mL of 0.2 M sodium phosphate and 8 mL of 0.1% Triton X-100, pH 7.8). After incubation for 5 min, the cells were once again centrifuged, the supernatant was removed, and the pellet was resuspended in 0.3 mL of staining solution (20 µg/mL of PI and 0.2 mg/mL of DNase-free RNase in PBS). Using a FACSCalibur flow cytometer (Becton Dickinson, Franklin Lakes, NJ, USA) with a 488 nm laser line, a minimum of 20,000 events were acquired and recorded using the BD CellQuestTM Pro 4.0.2 software, and analyzed with FlowJo 10.5.3 software. To exclude debris and necrotic cells, events with a lower diameter (forward scatter; FCS) and PI fluorescence (FL3) than the hypodiploid apoptotic cells were eliminated (Figures S1 and S2). Two independent experiments were performed. A Student’s t-test was performed to evaluate the statistical significance of the results.

[2] = test system: PC-3 prostate adenocarcinoma cells; assay: MTT cell viability assay, PC-3; details: 72 h; for IC50 / viability at 10 µM: Homo sapiens; for viability at 10 µM: read-out: cell viability percentage in relation to control, PC-3; for SI PC-3 (selectivity index versus NHDF): PC-3 versus NHDF
Method: (§1) To evaluate the anticancer potential of monomethine cyanine dyes 1–12, a cell proliferation study was conducted using the 3-(4,5-dimethylthiazol-2-yl)-2,5-diphenyltetrazolium bromide (MTT) assay. For this preliminary evaluation, a concentration of 10 µM for each dye was tested, with the well-established chemotherapy agent 5-fluorouracil (5-FU) serving as a positive control. The assay included normal human dermal fibroblasts (NHDF) as non-tumor cells, alongside tumor cell lines from colorectal (Caco-2), prostate (PC-3), and breast (MCF-7) adenocarcinomas.
(§2) The cell lines used in this study (Caco-2, MCF-7, PC-3, and NHDF) were obtained from the American Type Culture Collection (ATCC, Manassas, VA, USA) and cultured in 75 cm^2 culture flasks at 37 °C in a humidified atmosphere with 5% CO2 in a LEEC Culture Safe Precision CO2 Incubator. PC-3 cells were grown in Roswell Park Memorial Institute (RPMI) medium supplemented with 10% of inactivated Fetal Bovine Serum (FBS) and 1% of an antibiotic mixture (Sp; 10,000 U/mL of penicillin G and […] of streptomycin). MCF-7 and Caco-2 cell lines were both cultured using Dulbecco’s Modified Eagle Medium (DMEM). However, the medium for MCF-7 cells was complemented with 10% of inactivated FBS and 1% of antibiotic/antimycotic mixture (Ab; 10,000 U/mL of penicillin G, […] of streptomycin and 25 µg/mL of amphotericin B), and the medium for Caco-2 cells was supplemented with 20% of inactivated FBS and 1% of Sp. Finally, RPMI medium supplemented with 10% FBS, 2 mM of L-glutamine, 10 mM of 4-(2-hydroxyethyl)-1-piperazineethanesulfonic acid (HEPES), 1 mM of sodium pyruvate, and 1% of Ab was used to culture NHDF cells. The culture media were renewed every two to three days until near confluence was achieved. Then, cells were detached using a solution of 0.125 g/L of trypsin and 0.02 g/L of ethylenediaminetetracetic acid (EDTA), counted by the trypan blue method, resuspended, and adequately seeded to continue the culture in 75 cm^2 flasks or for the experiments described below. All manipulations were performed in a Labculture Class II A2 Biological Safety Cabinet.
(§3) After trypsinization, cells were seeded in 96-well culture plates (100 µL; 2 × 10^4 cells/mL), and after 48 h (for adherence), they were incubated with the compounds under study in the absence of light for a duration of 72 h. Then, the medium was removed, and fresh incomplete culture medium (without FBS and Ab or Sp) and MTT solution [5 mg/mL in phosphate buffer saline (PBS)] were added to each well, followed by 4 h of incubation. After this, the medium containing MTT was removed and DMSO was added to dissolve formazan crystals. The absorbance of each well at 570 nm was determined using a microplate spectrophotometer Bio-Rad (Hercules, CA, USA) xMark. Untreated cells were considered the negative control, and 5-FU, a clinically used drug, was considered the positive control. For data analysis, the relative cell proliferation relative to the negative control cells was calculated. For each cell viability study, at least two independent assays in quadruplicate were performed. Increasing concentrations of the compounds between 0.001 and 100 μM were used to determine the IC50 values.

[3] = MTT cell viability assay, NHDF; type: cell-based, human; details: human, normal human dermal fibroblasts (NHDF); 10 µM, 72 h, mean ± SD; read-out: cell viability percentage in relation to control, NHDF
Method: (§4) The cell lines used in this study (Caco-2, MCF-7, PC-3, and NHDF) were obtained from the American Type Culture Collection (ATCC, Manassas, VA, USA) and cultured in 75 cm^2 culture flasks at 37 °C in a humidified atmosphere with 5% CO2 in a LEEC Culture Safe Precision CO2 Incubator. PC-3 cells were grown in Roswell Park Memorial Institute (RPMI) medium supplemented with 10% of inactivated Fetal Bovine Serum (FBS) and 1% of an antibiotic mixture (Sp; 10,000 U/mL of penicillin G and 100 mg/mL of streptomycin). MCF-7 and Caco-2 cell lines were both cultured using Dulbecco’s Modified Eagle Medium (DMEM). However, the medium for MCF-7 cells was complemented with 10% of inactivated FBS and 1% of antibiotic/antimycotic mixture (Ab; 10,000 U/mL of penicillin G, 100 mg/mL of streptomycin and 25 µg/mL of amphotericin B), and the medium for Caco-2 cells was supplemented with 20% of inactivated FBS and 1% of Sp. Finally, RPMI medium supplemented with 10% FBS, 2 mM of L-glutamine, 10 mM of 4-(2-hydroxyethyl)-1-piperazineethanesulfonic acid (HEPES), 1 mM of sodium pyruvate, and 1% of Ab was used to culture NHDF cells. The culture media were renewed every two to three days until near confluence was achieved. Then, cells were detached using a solution of 0.125 g/L of trypsin and 0.02 g/L of ethylenediaminetetracetic acid (EDTA), counted by the trypan blue method, resuspended, and adequately seeded to continue the culture in 75 cm^2 flasks or for the experiments described below. All manipulations were performed in a Labculture Class II A2 Biological Safety Cabinet.

[4] = test system: normal human dermal fibroblasts (NHDF); assay: MTT cell viability assay, NHDF; type: cell-based; details: Homo sapiens; NHDF, 72 h incubation, MTT, absence of light; read-out: IC50 NHDF
Method: as §4

[5] = MTT cell viability assay, Caco-2; details: human
Method: as §1, §2, §3

[6] = test system: Caco-2 colorectal adenocarcinoma cells; assay: MTT cell viability assay, Caco-2; details: for IC50 / viability at 10 µM: Homo sapiens, Caco-2, 72 h; for IC50: read-out: IC50 Caco-2; for viability at 10 µM: read-out: cell viability percentage in relation to control, Caco-2; for SI Caco-2 (selectivity index, cancer versus non-cancer cell line NHDF): Caco-2 versus NHDF, 72 h
Method: as §1, §2, §3

[7] = read-out: IC50 PC-3, PC-3, 72 h incubation, MTT
[8] = Caco-2, SI Caco-2 (selectivity index, cancer versus non-cancer cell line NHDF), Caco-2 versus NHDF, 72 h

Structure (SMILES)	proportion of cells in G0/G1 phase ([1]; Caco-2, 10 µM, 72 h)	proportion of cells in S phase ([1]; Caco-2, 10 µM, 72 h)	IC50 ([2]; read-out: IC50 PC-3)	viability at 10 µM [2]	SI PC-3 (selectivity index versus NHDF) [2]	viability at 72 h, 10 µM [3]	IC50 [4]	selectivity ratio at 72 h ([5]; Caco-2)	IC50 [6]	viability at 10 µM [6]	effect on cell cycle distribution ([1]; Caco-2, 1 µM, 72 and 120 h)	IC50 [2, 7]	selectivity ratio at 72 h [5, 8]	SI Caco-2 (selectivity index, cancer versus non-cancer cell line NHDF) [6]	proportion of cells in G2/M phase ([1]; Caco-2, 10 µM, 72 h)
O=c1[nH]cc(F)c(=O)[nH]1 [5-FU, 5-fluorouracil, reference compound]	10.1%	around 80.3%	2430 nM	20.5 ± 2.3%	1.9	10.5 ± 0.74%	4530 nM	4.1	1110 nM	30.1 ± 1.24%					
CN1C(=Cc2oc3ccccc3[n+]2C)C=Cc2ccccc21.Cc1ccc(S(=O)(=O)[O-])cc1 [Dye 5, 3-Methyl-2-((1-methylquinolin-2(1H)-ylidene)methyl)benzo[d]oxazol-3-ium 4-methylbenzenesulfonate]				3.47 ± 0.95%	1.9	15.4 ± 1.82%	2790 nM		10 nM	5.05 ± 0.19%	did not significantly alter the cell cycle distribution	1430 nM	278	278.3	
CCN1C(=Cc2sc3cc([N+](=O)[O-])ccc3[n+]2CC)Sc2ccccc21.Cc1ccc(S(=O)(=O)[O-])cc1 [Dye 10, 3-Ethyl-2-((3-ethylbenzo[d]thiazol-2(3H)-ylidene)methyl)-6-nitrobenzo[d]thiazol-3-ium 4-methylbenzenesulfonate]	approximately 62.0%			14.4 ± 1.6%	3.8	34.3 ± 1.99%	22400 nM		140 nM	18.6 ± 0.65%		5930 nM	151	151.4	6.6%

Source: publication PMC11642940, “A New Demand for Improved Selectivity and Potency of Cyanine Dyes as Antiproliferative Agents Against Colorectal Cancer Cells” (Molecules, 2024)
